Results taken from publication PMC6164518 (Marine Drugs, 2018).

Assays:
[1] = target: T1, Aβ1–42 and AChE (Electrophorus electricus, UniProt O42275); experiment: Inhibition of AChE-induced Aβ1–42 aggregation (ThT fluorescence); assay type: biochemical; conditions: Aβ1–42 2.5 µM, AChE 0.2 U/mL, compound 8 µM; mean ± SD of three experiments
T1 construct: HFIP pre-treated Aβ1–42 (GL Biochem Ltd., shanghai, China) was dissolved in DMSO; purchased GL Biochem Ltd. (Aβ1–42)
Procedure: The stock solution was centrifuged at the speed of 13,500 rpm for 10 min. The above supernatant was used for experiments. […] Fluorescence emission was measured at 490 nm with an excitation wavelength of 450 nm on a Tecan Spark multimode microplate reader.

[2] = target: T2, equine serum BChE (Equus caballus, UniProt P81908); experiment: biochemical; conditions: BChE from equine serum; mean ± SD from three separate experiments; read-out: IC50 eqBChE
T2 construct: purchased Sigma-Aldrich (Steinheim, Germany); host or cells: equine serum
T2 sequence (P81908 whole entry): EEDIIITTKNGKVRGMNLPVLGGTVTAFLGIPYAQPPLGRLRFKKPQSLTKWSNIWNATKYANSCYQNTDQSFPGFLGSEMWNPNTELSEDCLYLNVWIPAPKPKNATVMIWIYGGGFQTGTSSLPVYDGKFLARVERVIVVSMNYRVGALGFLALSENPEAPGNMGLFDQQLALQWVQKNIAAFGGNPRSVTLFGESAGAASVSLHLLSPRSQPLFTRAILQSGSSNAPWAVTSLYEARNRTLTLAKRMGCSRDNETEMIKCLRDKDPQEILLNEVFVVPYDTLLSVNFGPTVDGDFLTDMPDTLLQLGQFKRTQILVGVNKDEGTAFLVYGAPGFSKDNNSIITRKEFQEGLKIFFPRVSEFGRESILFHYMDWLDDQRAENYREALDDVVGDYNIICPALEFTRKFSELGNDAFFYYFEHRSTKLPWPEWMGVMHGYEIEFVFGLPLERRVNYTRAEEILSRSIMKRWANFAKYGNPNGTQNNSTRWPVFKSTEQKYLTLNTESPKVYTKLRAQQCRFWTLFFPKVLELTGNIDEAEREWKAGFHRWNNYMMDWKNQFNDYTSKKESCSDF
Procedure: (§1) The AChE and BChE inhibitory activities of compounds were determined by using a slightly modified Ellman’s method. Electric eel AChE, equine serum BChE, 5,5′-dithiobis(2-nitrobenzoic acid) (DTNB), phosphate buffer solution (PBS, pH 8.0), acetylthiocholine (ATC) iodide, and butyrylthiocholine (BUC) iodide were purchased from Sigma-Aldrich (Steinheim, Germany). […] Enzyme solutions were prepared at 2.0 U/mL in 2-mL aliquots. The assay medium consisted of 10 μL of enzyme, 40 μL of PBS, 20 μL of 0.01 M DTNB, and 10 μL of tested compound. Assayed solutions of tested compounds were pre-incubated with corresponding ChE for 5 min. The reaction was initiated by the addition of 20 μL of 0.01 M substrate (ATC or BUC). The activity was determined by measuring the increase in absorbance at 410 nm at 37 °C in 2-min intervals using Tecan Spark multimode microplate reader (Mannedorf, Switzerland). The percentage of inhibition (I) was calculated from the measured data as follows: I = (Ac − Ai)/Ac × 100%, where Ai and Ac represent the change in the absorbance in the presence of an inhibitor and without an inhibitor, respectively.

[3] = target: T3, Electric eel AChE (Electrophorus electricus, UniProt O42275); experiment: biochemical; conditions: AChE from electric eel; mean ± SD from three separate experiments; read-out: IC50 EeAChE
T3 construct: purchased Sigma-Aldrich (Steinheim, Germany)
T3 sequence (O42275 24-633): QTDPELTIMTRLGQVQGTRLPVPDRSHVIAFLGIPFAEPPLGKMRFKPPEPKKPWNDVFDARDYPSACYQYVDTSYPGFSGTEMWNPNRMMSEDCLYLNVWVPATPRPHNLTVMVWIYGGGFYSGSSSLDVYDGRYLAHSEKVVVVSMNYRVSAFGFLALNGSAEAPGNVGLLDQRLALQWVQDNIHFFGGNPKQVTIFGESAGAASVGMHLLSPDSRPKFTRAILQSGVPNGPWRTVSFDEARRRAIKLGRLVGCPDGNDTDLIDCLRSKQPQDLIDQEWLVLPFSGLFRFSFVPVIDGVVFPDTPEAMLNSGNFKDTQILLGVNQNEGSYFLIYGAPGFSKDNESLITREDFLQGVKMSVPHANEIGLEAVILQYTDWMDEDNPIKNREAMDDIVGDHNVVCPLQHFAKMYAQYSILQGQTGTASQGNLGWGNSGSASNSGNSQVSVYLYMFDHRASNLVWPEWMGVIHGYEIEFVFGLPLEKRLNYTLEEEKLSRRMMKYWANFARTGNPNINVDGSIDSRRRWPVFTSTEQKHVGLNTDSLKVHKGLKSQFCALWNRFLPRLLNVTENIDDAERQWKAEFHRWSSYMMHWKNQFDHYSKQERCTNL
Procedure: as §1

[4] = in vitro; conditions: human
Procedure: Thus, to verify the hepatotoxicity of 1 and 12j, a 3-(4,5-dimethylthiazol-2-yl)-2,5-diphenyltetrazolium bromide (MTT) assay on the human hepatoma cell line (HepG2) was carried out.
The cytotoxicity of selected compounds was evaluated on HepG2 cells. Cells were inoculated into 96-well plates. After incubation for 24 h, the cells were treated with different concentrations of tested compounds for 24 h, and then were incubated with 10 μL of 3-(4,5-dimethylthiazol-2-yl)-2,5-diphenyltetrazolium bromide (MTT) at 37 °C for 2 h. The formazan dye product was measured by the absorbance at 490 nm on a Tecan Spark multimode microplate reader.

[5] = system: AChE; parameters: method as in PMID 24547899; conditions: read-out: AChE IC50 (reported value); cited from earlier work
[6] = target: T4, Aβ1–42 (Homo sapiens, UniProt P05067); experiment: Inhibition of self-induced Aβ1–42 aggregation (ThT fluorescence); assay type: biochemical; conditions: Aβ1–42 2.5 µM, compound 10 µM; mean ± SD of three experiments
T4 construct: pre-treated Aβ1–42 (GL Biochem Ltd., Shanghai, China) was dissolved in DMSO; purchased GL Biochem Ltd., Shanghai, China
T4 sequence (P05067 672-713 limits assumed): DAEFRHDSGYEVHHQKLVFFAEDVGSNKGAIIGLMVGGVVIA
Procedure: In order to investigate the inhibition of compounds on Aβ1–42 self-aggregation, a ThT-based fluorometric assay was performed. 1,1,1,3,3,3-hexafluoro-2-propanol (HFIP) pre-treated Aβ1–42 (GL Biochem Ltd., Shanghai, China) was dissolved in DMSO to make a 200 µM stock solution. The stock solution was centrifuged at the speed of 13,500 rpm for 10 min. The above supernatant was used for experiments. The tested compounds were dissolved in DMSO at concentrations of 0.8 mM. A screening assay for the tested compounds to inhibit A aggregation was performed by measuring ThT fluorescence emission. Compounds (2 µL) and 2 µL of 200 µM Aβ1–42 were added into 76 µL of phosphate-buffered saline (PBS at pH 7.4) in a 96-well plate. After incubation for 24 h at room temperature, 80 µL of 5 µM of ThT solution (in 50 mM of glycine-NaOH at pH 8.5) was added to the reaction solution. Fluorescence emission was measured at 490 nm with an excitation wavelength of 450 nm on a Tecan Spark multimode microplate reader. […] The fluorescence intensities were compared, and the % inhibition was calculated by the following equation: 100 − [(Fi − Fb)/(Fo − Fb) × 100], where Fi, Fo and Fb are the fluorescence intensities obtained for Aβ aggregation in the presence of inhibitors Aβ1–42 and ThT; in the presence of Aβ1–42 and THT but no inhibitors; and the blanks containing ThT only.

T1 sequence (O42275 24-633): as the sequence (O42275 24-633) above

In the case of `COc1c(Br)cc(CC(=O)NCCCCC[N+](C)(C)C)cc1Br` [Compound 1, Pulmonarin B], the “Inhibition of Aβ Aggregation (%) AChE-Induced” value [1] is reported as 27.60 ± 1.96%, the IC50 [2] is reported as 30.7 ± 1.44 µM and the IC50 [3] is reported as 37 ± 2.11 µM. The IC50 at 24 h [4] was over 80 µM, the IC50 [5] was 36 µM and the “Inhibition of Aβ Aggregation (%) Self-Induced” value [6] was 29.78 ± 1.45%.
